Laboratory results from ChEMBL document CHEMBL1151082, “Structure-directed discovery of an inhibitor of the binding of HIV GP120 to the CD4 receptor” (Bioorg Med Chem Lett, 1993).
pIC50, pKd: −log10 of the molar value.

Tests used:
[1] = biological target: T1, Envelope glycoprotein gp160 (Human immunodeficiency virus type 1 group M subtype B (isolate HXB2)(HIV-1), UniProt P04578); assay: Tested for inhibition of binding of soluble recombinant CD4-gp120 using ELISA assay
[2] = biological target: T1, Envelope glycoprotein gp160; assay: Tested in an HIV viral syncytium assay for inhibition of binding of recombinant CD4-gp120
[3] = biological target: T1, Envelope glycoprotein gp160; assay: Tested for ability to block the CD4-gp120 interaction measured by binding of [125I]sCD4 to gp120
[4] = biological target: T1, Envelope glycoprotein gp160; assay: Tested for inhibition of binding of soluble recombinant CD4-gp120 using ELISA assay; IA is Inactive
[5] = biological target: T1, Envelope glycoprotein gp160; assay: Tested for rate constant of binding to inhibit soluble recombinant CD4-gp120; value ranges form 4-20 uM

SMILES | IC50 [4] | also measured
CCN(CCCl)CC1CC(c2ccccc2)(c2ccccc2)C(=O)O1 (stereo unspecified) |  | pIC50 [1]: 4.46; pIC50 [2]: 4.00; pIC50 [3]: 4.52
CC1(C)CN(CC2CC(c3ccccc3)(c3ccccc3)C(=O)O2)C=N1 (stereo unspecified) | Not Active | 
O=C1OC(CBr)CC1(c1ccccc1)c1ccccc1 (stereo unspecified) | Not Active | 
COC(=O)C(=O)N1CCC[C@@H]1C(=O)N[C@H](Cc1ccccc1)C(=O)OCc1ccccc1 |  | pIC50 [1]: 3.52
CC1=NCCN1CC1CC(c2ccccc2)(c2ccccc2)C(=O)O1 (stereo unspecified) | Not Active | 
O=C1OC(C[N+]23CCC(CC2)CC3)CC1(c1ccccc1)c1ccccc1.[Br-] (stereo unspecified) | Not Active | 
CC(C)C[C@H](NC(=O)[C@H](Cc1ccccc1)N1NC(=O)[C@H]([C@@H](N)CO)CCC(=O)N[C@@H](CO)C1=O)C(=O)N[C@H](C(=O)NCc1ccccc1)[C@@H](C)O |  | pIC50 [1]: < 4.00; pKd [5]: 5.40

Now from value to molecule, other results behind:

IC50 [4] | SMILES | also measured
Not Active | CCN(CC1CC(c2ccccc2)(c2ccccc2)C(=O)O1)C(=O)C(=O)OC (stereo unspecified) | 
Not Active | CCN(Cc1ccccc1)CC1CC(c2ccccc2)(c2ccccc2)C(=O)O1 (stereo unspecified) | 
Not Active | CCCCN(CCCC)CC1CC(c2ccccc2)(c2ccccc2)C(=O)O1 (stereo unspecified) | 
Not Active | CN(C)CCNCC1CC(c2ccccc2)(c2ccccc2)C(=O)O1 (stereo unspecified) | 
Not Active | CCN(CCN(C)C)CC1CC(c2ccccc2)(c2ccccc2)C(=O)O1 (stereo unspecified) | 
Not Active | CCNCC1CC(c2ccccc2)(c2ccccc2)C(=O)O1 (stereo unspecified) | 
